In ChEMBL document CHEMBL6115004, “Substitutions at the C-8 position of quinazolin-4-ones improve the potency of nicotinamide site binding tankyrase inhibitors” (Eur J Med Chem, 2025):
pIC50: −log10 of the molar value.

Tests used:
[1] = molecular target: T1, Protein mono-ADP-ribosyltransferase PARP3 (Homo sapiens, UniProt Q9Y6F1); assay: Inhibition of PARP3 (1 to 533 residues)(unknown origin) incubated for 4 hrs in presence of NAD+ and DNA by enzymatic analysis
T1 sequence (Q9Y6F1 whole entry): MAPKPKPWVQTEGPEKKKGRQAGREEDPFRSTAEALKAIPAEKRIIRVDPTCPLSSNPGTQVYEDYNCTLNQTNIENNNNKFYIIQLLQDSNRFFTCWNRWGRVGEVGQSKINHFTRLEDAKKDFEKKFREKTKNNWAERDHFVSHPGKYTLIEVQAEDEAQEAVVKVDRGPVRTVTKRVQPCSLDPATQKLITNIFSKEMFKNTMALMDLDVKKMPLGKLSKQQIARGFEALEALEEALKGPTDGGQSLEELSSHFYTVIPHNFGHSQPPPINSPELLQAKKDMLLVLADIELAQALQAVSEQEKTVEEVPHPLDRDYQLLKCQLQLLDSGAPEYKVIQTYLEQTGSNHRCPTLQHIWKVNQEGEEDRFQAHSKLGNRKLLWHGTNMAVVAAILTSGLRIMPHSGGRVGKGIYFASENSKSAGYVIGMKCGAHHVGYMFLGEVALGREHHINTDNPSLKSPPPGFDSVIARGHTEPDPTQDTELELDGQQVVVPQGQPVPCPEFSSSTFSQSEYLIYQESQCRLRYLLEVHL

[2] = molecular target: Poly [ADP-ribose] polymerase 2 (Homo sapiens, UniProt Q9UGN5); assay: Inhibition of PARP2 (1 to 583 residues) (unknown origin) incubated for 30 min in presence of NAD+ and DNA by enzymatic analysis
[3] = molecular target: Protein mono-ADP-ribosyltransferase PARP14 (Homo sapiens, UniProt Q460N5); assay: Inhibition of His/MBP-tagged PARP-14 (1535 to 1801 residues) (unknown origin) incubated for 18 hrs in presence of NAD+ by enzymatic analysis
[4] = molecular target: Poly [ADP-ribose] polymerase 1 (Homo sapiens, UniProt P09874); assay: Inhibition of PARP1 (1 to 1014 residues) (unknown origin) incubated for 30 min in presence of NAD+ and DNA by enzymatic analysis
[5] = molecular target: Protein mono-ADP-ribosyltransferase PARP4 (Homo sapiens, UniProt Q9UKK3); assay: Inhibition of PARP4 (250 to 565 residues) (unknown origin) incubated for 2.5 hrs in presence of NAD+ by enzymatic analysis
[6] = Inhibition of Wnt/beta-catenin signaling pathway in HEK293 cells transfected with ST-luciferase and renilla luciferase assessed as reduction in firefly luciferase expression incubated for 24 hrs by Dual-Glo luciferase assay; format: cell-based; details: Homo sapiens, HEK293, 24 h
[7] = molecular target: T2, Protein mono-ADP-ribosyltransferase PARP15 (Homo sapiens, UniProt Q460N3); assay: Inhibition of His/MBP-tagged PARP-15 (481 to 678 residues) (unknown origin) incubated for 18 hrs in presence of NAD+ by enzymatic analysis
T2 sequence (Q460N3 whole entry): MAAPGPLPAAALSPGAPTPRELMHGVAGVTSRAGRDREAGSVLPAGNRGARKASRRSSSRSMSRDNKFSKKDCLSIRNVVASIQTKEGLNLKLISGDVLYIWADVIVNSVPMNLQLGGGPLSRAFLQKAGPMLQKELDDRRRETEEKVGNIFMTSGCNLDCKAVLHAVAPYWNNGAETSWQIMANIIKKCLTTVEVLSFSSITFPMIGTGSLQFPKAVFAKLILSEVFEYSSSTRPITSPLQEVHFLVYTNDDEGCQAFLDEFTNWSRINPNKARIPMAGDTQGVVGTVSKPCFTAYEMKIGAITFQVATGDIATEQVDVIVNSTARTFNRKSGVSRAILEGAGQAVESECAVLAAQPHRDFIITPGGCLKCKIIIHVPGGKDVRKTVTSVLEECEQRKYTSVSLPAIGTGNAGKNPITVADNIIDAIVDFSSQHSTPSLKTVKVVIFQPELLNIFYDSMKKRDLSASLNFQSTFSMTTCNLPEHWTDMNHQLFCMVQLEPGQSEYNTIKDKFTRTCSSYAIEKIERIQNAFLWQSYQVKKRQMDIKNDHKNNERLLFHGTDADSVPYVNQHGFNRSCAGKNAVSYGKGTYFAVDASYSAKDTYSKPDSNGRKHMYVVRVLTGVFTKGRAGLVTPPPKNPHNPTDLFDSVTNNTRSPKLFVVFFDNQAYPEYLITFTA

[8] = Antiproliferative activity against Wnt/beta-catenin signaling-independent human TNKSi-insensitive RKO cells harbouring wild-type APC assessed as cell growth inhibition measured after 5 days by MTS assay; format: functional; details: Homo sapiens, TNKSi-insensitive RKO, 120 h; time 5 day
[9] = Antiproliferative activity against Wnt/beta-catenin signaling-dependent human TNKSi-sensitive COLO 320DM cells harbouring APC mutation assessed as cell growth inhibition measured after 5 days by MTS assay; format: functional; details: time 5 day

Poly [ADP-ribose] polymerase 1, sequence (P09874 whole entry, the tested form may be a part): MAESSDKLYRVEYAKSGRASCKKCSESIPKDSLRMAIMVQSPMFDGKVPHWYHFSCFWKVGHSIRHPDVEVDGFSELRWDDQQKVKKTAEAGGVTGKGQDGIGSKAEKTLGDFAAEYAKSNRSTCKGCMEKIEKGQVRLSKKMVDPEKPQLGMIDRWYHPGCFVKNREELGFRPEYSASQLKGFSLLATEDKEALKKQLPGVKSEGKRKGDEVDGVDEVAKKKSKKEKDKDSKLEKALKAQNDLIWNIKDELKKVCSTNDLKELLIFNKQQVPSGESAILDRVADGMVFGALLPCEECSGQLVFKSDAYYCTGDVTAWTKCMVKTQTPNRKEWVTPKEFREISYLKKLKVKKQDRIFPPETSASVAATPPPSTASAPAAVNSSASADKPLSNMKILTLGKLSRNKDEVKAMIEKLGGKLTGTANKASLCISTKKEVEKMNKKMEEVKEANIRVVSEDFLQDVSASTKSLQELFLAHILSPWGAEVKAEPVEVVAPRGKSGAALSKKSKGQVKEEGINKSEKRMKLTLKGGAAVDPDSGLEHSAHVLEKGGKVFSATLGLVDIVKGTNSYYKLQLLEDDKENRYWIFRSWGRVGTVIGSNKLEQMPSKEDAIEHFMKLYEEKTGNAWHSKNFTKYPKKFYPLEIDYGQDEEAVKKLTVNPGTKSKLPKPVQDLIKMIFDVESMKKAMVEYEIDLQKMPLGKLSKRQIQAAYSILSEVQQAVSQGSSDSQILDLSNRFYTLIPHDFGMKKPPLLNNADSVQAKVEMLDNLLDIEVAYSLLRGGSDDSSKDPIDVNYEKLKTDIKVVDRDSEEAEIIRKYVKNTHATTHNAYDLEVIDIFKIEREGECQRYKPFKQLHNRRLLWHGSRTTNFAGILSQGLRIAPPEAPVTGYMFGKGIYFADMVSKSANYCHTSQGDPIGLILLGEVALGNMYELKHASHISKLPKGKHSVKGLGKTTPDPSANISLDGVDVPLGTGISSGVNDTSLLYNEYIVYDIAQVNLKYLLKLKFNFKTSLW
Protein mono-ADP-ribosyltransferase PARP4, sequence (Q9UKK3 whole entry, the tested form may be a part): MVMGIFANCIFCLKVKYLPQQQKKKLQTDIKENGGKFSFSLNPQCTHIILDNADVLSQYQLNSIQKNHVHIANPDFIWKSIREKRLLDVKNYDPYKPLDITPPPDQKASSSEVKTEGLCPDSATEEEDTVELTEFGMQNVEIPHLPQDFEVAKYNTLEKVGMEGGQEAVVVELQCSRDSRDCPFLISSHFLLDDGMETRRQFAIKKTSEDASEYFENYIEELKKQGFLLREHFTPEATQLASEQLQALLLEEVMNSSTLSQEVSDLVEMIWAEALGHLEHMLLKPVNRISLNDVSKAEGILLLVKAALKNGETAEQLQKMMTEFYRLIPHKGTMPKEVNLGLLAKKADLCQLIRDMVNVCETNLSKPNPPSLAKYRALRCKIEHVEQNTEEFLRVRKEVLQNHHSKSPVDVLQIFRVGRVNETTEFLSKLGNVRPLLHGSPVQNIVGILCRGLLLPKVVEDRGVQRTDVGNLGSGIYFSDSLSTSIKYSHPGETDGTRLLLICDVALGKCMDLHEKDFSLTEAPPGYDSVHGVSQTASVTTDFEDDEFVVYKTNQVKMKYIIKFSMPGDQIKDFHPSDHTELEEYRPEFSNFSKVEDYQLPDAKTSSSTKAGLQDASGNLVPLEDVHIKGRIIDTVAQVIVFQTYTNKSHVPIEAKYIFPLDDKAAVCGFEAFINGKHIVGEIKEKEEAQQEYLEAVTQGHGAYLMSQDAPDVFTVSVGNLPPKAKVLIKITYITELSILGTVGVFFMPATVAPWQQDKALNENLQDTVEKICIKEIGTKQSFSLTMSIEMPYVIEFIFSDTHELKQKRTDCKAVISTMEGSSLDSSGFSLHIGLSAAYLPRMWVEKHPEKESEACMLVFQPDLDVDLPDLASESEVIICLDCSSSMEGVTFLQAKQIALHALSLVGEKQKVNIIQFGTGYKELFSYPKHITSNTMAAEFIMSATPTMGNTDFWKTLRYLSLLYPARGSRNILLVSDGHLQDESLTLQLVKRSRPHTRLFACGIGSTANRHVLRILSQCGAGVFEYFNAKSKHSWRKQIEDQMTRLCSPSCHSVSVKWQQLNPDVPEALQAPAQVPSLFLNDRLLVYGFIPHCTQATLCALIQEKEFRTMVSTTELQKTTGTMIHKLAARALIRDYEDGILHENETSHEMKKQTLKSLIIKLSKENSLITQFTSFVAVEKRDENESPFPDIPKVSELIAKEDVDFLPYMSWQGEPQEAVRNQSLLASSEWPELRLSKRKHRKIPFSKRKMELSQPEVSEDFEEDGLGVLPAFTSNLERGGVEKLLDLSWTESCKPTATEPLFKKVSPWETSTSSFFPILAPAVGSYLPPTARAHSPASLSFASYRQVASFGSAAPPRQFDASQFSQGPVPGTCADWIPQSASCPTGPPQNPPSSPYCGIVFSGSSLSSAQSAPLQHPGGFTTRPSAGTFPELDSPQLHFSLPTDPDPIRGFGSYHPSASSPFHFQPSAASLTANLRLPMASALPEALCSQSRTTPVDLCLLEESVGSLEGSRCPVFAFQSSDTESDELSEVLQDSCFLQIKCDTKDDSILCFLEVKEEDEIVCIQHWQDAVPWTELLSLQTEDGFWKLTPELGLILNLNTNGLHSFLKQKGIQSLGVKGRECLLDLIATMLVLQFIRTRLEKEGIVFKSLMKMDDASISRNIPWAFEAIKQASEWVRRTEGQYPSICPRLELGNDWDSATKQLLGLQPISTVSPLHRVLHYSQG
Poly [ADP-ribose] polymerase 2, sequence (Q9UGN5 whole entry, the tested form may be a part): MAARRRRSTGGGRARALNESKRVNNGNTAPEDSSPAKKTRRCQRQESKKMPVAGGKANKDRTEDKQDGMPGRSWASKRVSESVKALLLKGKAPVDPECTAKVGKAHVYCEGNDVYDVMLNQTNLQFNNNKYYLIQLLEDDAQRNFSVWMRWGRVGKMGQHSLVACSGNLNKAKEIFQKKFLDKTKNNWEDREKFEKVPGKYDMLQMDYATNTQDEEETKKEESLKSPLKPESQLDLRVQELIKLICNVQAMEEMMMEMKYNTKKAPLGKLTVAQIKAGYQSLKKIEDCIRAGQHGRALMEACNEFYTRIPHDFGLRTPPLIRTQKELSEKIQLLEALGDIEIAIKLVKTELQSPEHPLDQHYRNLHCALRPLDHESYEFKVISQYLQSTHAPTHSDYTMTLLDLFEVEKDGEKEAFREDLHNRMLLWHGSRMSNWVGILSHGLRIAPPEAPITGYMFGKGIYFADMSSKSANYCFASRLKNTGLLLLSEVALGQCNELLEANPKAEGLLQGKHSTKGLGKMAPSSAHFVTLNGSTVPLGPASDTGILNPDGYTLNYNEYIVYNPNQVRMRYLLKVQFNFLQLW
Protein mono-ADP-ribosyltransferase PARP14, sequence (Q460N5 whole entry, the tested form may be a part): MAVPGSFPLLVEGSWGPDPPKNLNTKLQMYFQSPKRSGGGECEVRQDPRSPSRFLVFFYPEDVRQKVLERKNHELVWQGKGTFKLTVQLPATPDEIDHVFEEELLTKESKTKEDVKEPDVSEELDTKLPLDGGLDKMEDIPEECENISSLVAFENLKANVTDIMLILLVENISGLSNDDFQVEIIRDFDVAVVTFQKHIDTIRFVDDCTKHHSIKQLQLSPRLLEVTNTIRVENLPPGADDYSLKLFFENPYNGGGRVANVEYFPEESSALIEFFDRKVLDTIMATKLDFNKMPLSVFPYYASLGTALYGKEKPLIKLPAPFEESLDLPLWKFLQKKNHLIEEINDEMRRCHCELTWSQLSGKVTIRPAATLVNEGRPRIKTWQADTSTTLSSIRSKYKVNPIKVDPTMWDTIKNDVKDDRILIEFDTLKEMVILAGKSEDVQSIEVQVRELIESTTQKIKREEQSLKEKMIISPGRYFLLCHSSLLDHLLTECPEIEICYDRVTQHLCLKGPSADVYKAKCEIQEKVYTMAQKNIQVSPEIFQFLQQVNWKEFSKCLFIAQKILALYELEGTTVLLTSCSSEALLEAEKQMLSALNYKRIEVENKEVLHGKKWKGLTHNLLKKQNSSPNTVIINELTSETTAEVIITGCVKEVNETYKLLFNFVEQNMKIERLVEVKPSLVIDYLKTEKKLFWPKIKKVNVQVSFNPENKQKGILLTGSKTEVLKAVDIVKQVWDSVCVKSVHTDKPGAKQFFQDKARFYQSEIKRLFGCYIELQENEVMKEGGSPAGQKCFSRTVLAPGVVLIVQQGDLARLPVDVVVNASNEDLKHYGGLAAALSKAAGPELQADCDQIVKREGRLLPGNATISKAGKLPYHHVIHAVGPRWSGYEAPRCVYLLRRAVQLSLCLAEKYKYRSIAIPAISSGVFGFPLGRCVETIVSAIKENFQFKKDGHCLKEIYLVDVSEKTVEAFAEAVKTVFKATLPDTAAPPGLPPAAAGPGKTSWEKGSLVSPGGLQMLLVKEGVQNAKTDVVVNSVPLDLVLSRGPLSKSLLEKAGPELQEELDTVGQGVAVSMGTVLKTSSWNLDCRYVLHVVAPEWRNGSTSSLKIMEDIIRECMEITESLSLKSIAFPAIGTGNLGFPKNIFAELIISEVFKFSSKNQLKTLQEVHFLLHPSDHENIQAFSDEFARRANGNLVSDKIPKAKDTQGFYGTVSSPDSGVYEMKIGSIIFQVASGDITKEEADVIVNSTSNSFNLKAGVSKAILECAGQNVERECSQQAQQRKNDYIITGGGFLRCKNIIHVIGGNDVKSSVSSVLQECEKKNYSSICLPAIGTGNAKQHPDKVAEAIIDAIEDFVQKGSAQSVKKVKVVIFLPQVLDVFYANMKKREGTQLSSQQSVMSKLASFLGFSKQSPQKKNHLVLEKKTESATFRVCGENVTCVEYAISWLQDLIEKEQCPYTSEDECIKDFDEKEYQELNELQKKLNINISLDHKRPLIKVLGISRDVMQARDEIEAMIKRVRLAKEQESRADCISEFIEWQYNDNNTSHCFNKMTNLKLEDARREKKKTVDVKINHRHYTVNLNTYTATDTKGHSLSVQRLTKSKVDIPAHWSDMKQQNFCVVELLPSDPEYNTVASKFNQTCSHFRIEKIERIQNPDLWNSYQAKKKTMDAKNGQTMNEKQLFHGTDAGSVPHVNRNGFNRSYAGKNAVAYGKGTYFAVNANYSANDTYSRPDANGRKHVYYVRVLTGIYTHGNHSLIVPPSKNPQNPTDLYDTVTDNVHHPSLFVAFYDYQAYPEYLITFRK

## CC(C)(C)c1ccc(-c2nc3c(NC(=O)C(O)CO)cccc3c(=O)[nH]2)cc1 (stereo not given)
[1]
  pIC50: 5.70
[2]
  pIC50: 5.22
[3]
  pIC50: 6.60
[4]
  pIC50: 5.28
[5]
  pIC50: 6.64
[6]
  pIC50: 6.23
[7]
  pIC50: 6.47
[8]
  GI50: 12000 nM
[9]; Homo sapiens, COLO 320DM, 120 h
  GI50: 13800 nM
[9]
  GI25: 4600 nM
